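Dose response: 5 concentrations. Exposure: 48 h. Format: 96-well plates. Endpoint: linear interpolation; highest concentration if not reached. TGI: total growth inhibition.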
Tests used:
Assay in all cases: NCI-60 cell line screen, 48 h
PC-3 prostate = tested on: PC-3 prostate
A498 renal = tested on: A498 renal
SK-MEL-5 melanoma = tested on: SK-MEL-5 melanoma
COLO 205 colon = tested on: COLO 205 colon
OVCAR-8 ovarian = tested on: OVCAR-8 ovarian
HCC-2998 colon = tested on: HCC-2998 colon
NCI-H226 lung = tested on: NCI-H226 lung
LOX IMVI melanoma = tested on: LOX IMVI melanoma
MOLT-4 leukemia = tested on: MOLT-4 leukemia
BT-549 breast = tested on: BT-549 breast
NCI/ADR-RES ovarian = tested on: NCI/ADR-RES ovarian
HT29 colon = tested on: HT29 colon
SNB-19 CNS = tested on: SNB-19 CNS
NCI-H23 lung = tested on: NCI-H23 lung
SW-620 colon = tested on: SW-620 colon
IGROV1 ovarian = tested on: IGROV1 ovarian
NCI-H460 lung = tested on: NCI-H460 lung
MDA-MB-435 = tested on: MDA-MB-435
SNB-75 CNS = tested on: SNB-75 CNS

Row | SMILES | TGI (PC-3 prostate) [µM] | TGI (A498 renal) [µM] | TGI (SK-MEL-5 melanoma) [µM] | TGI (COLO 205 colon) [µM] | TGI (OVCAR-8 ovarian) [µM] | TGI (HCC-2998 colon) [µM] | TGI (NCI-H226 lung) [µM] | TGI (LOX IMVI melanoma) [µM] | TGI (MOLT-4 leukemia) [µM] | TGI (BT-549 breast) [µM] | TGI (NCI/ADR-RES ovarian) [µM] | TGI (HT29 colon) [µM] | TGI (SNB-19 CNS) [µM] | TGI (NCI-H23 lung) [µM] | TGI (SW-620 colon) [µM] | TGI (IGROV1 ovarian) [µM] | TGI (NCI-H460 lung) [µM] | TGI (MDA-MB-435) [µM] | TGI (SNB-75 CNS) [µM]
1 | CCOC(=O)CN1C(=O)c2ccc(NC(=O)C(=O)O)cc2S1(=O)=O | > 100 | > 100 | > 100 | > 100 | > 100 | > 100 | > 100 | > 100 | > 100 | > 100 | > 100 | > 100 | > 100 | > 100 | > 100 | > 100 | > 100 | > 100 | 
2 | O=[N+]([O-])/C(C(Cl)=C(Cl)Cl)=C(/Cl)Sc1ccccc1 | 4.66 | 4.19 | 4.47 | 2.75 | 0.786 | 5.7 | 24.3 | 3.65 | 1.23 |  | 2.35 | 6.12 | 36 | 4.1 | 1.07 | 4.69 | 34.6 | 3.29 | 28.8
3 | CC(O)C1(CNc2cc(Cl)nc(N)n2)CCC1 (centres undefined) | > 100 |  | > 100 |  | > 100 | > 100 | > 100 | > 100 | > 100 | > 100 | > 100 | > 100 | > 100 | > 100 | > 100 | > 100 | > 100 | > 100 | 
4 | CC(=O)c1c(C)n([O-])c2cc(Cl)c(Cl)cc2[n+]1=O | > 100 | 70.4 | 26.4 | 30.1 | 89.9 | 57.8 |  | 46.4 | > 100 | > 100 | 75.1 | 90.9 | > 100 | > 100 | > 100 | 24.4 | 56 | 69.7 | 
5 | COC(=O)C1=C(O)C(C(=O)OC)[C@]2(O)[C@H](C(=O)OC)[C@H]1C[C@@H](c1ccc(C(F)(F)F)cc1)[C@H]2C(=O)OC (some centres undefined) | 94.6 | 13.9 | 10.9 | 11.5 | > 100 | 14.7 | 7.36 | 7.3 | > 100 | > 100 |  | 25.1 | 68.9 | 21.7 | > 100 | 29 | > 100 | > 100 | 26.7
6 | CC(C)(C)OC(=O)[C@H]1CCC(=S)N1Cc1ccccc1 | > 100 | > 100 | > 100 | > 100 | > 100 | > 100 | > 100 | > 100 | > 100 |  | > 100 |  | > 100 | > 100 | > 100 | > 100 | > 100 | > 100 | > 100
7 | CC(CO)(CO)N1C(=O)C2C3C=CC(C3)C2C1=O (centres undefined) | > 100 | > 100 | > 100 | > 100 | > 100 | > 100 | > 100 | > 100 | > 100 |  | > 100 | > 100 | > 100 | > 100 | > 100 | > 100 | > 100 | > 100 | > 100
8 | NNC(=O)c1n[nH]nc1C(=O)NN | > 100 |  | > 100 | > 100 | > 100 | > 100 |  |  | > 100 | 29.3 | > 100 | 26.3 | > 100 | > 100 |  |  | > 100 | > 100 | 
9 | COc1ccc(/C=C2\N=C(SC)N(CN3CCOCC3)C2=O)cc1 | > 100 | > 100 | > 100 | > 100 | > 100 |  | > 100 | > 100 | > 100 |  | > 100 | > 100 | > 100 | > 100 | > 100 | > 100 |  | > 100 | > 100
10 | O=c1c(/C=C/c2c(O)ccc3ccccc23)nnc2sc(-c3cccc(Br)c3)nn12 | > 100 | > 100 | 37.5 | > 100 | 23.6 | 89 |  | 26.9 | 40.3 | 56.7 | 88.4 | 82.1 | > 100 | 40.3 | > 100 | 15.8 | > 100 | > 100 | 
11 | COc1cc2c(C)cc(O)cc2c2cc(O)c(C)cc12 | 19 | 21.3 | 20.3 | 19.6 | 40.2 | 24.4 | 28.2 | 9.22 | 25.1 | 23 | 30.4 | 45.8 | 21.4 | 21.5 | 19.8 | 29 | 9.73 | 19.2 | 
12 | CSc1ncnc2c1ncn2CCC(=O)OC(C)(C)C | > 100 | > 100 | > 100 | > 100 | > 100 | > 100 | > 100 | > 100 | > 100 |  | > 100 | > 100 | > 100 | > 100 | > 100 | > 100 | > 100 | > 100 | > 100
13 | N#Cc1c(N)nc2n[nH]c(N)c2c1-c1ccc(Cl)cc1 | 16.7 | 3.14 | > 81.1 | > 100 | > 50.8 | > 64.7 | > 100 | 16.9 | > 100 | 12.7 | 61.6 | > 58.6 | > 59.9 | 29.8 | > 100 | 7.39 | > 96.7 | > 74.4 | 
14 | O=C(O)[C@@H]1CCS(=O)(=O)N1 | > 100 | > 100 | > 100 | > 100 | > 100 | > 100 |  | > 100 | > 100 |  | > 100 | > 100 | > 100 | > 100 | > 100 | > 100 | > 100 | > 100 | 
15 | COC(=O)/C=C(\C)CC(O)/C=C(\C)CCC=C(C)C (centres undefined) | > 100 | > 100 | 42.7 | > 100 | > 100 | > 100 | > 100 | > 100 | 55.3 | > 100 | 67.9 | 59.2 | > 100 | 74.9 | > 100 | > 100 | > 100 |  | 57.1
16 | O=C(O)C(NCc1ccccc1)C(NCc1ccccc1)C(=O)O (centres undefined) |  | > 100 | > 100 | > 100 | > 100 | > 100 | > 100 | > 100 | > 100 | > 100 | > 100 | > 100 | > 100 | > 100 | > 100 | > 100 | > 100 | > 100 | > 100
17 | CCOC(=O)NC(Nc1ccc(S(=O)(=O)Nc2nc(C)cc(C)n2)cc1)(C(=O)OCC)C(F)(F)F (centres undefined) | > 100 | > 100 | > 100 | > 100 | > 100 | > 100 | > 100 | > 100 | > 100 | > 100 |  | > 100 | > 100 | > 100 | > 100 | > 100 | > 100 | > 100 | > 100
18 | CC(=O)Oc1ccc2c(C)cc(=O)oc2c1OC(C)=O | > 100 | 76.5 | > 100 | > 100 | > 100 |  | > 100 | > 100 | > 100 |  | 78.6 | > 100 | > 100 | > 100 | > 100 | 92.9 |  | > 100 | > 100
19 | Cc1nc2c(nc1C)-c1[nH]c3c(c1C(=O)C2=O)CCCC3=O | 15.7 | 21.5 | 3.02 | 7.93 | 2.88 | 7.71 | 3.04 | 2.87 | 5.67 |  | 6.47 | 16.2 | 5.58 | 5.63 | 5.17 | 11.5 | 16.2 | 1.48 | 3.31
20 | Cc1ccc(-n2c(N)c(C#N)c3[nH]nc(N)c3c2=O)cc1 | > 100 | > 100 | > 100 | > 100 | > 100 | > 100 | > 100 | > 100 | > 100 |  | > 100 | > 100 | > 100 | > 100 | > 100 | > 100 | > 100 | > 100 | > 100
21 | O=c1[nH]nc(Cc2ccccc2)n1/N=C/c1ccccc1O |  | > 100 | > 100 | > 100 | > 100 | > 100 | > 100 | > 100 | > 100 | > 100 | > 100 | > 100 | > 100 | > 100 | > 100 | > 100 | > 100 | > 100 | 
22 | Oc1[nH]c2ccccc2c1N=NC(=S)Nc1cccc(Cl)c1 | > 100 | 24.7 | 18.8 | > 100 | 35.7 | > 100 | 55.2 | 33.4 | 10.8 |  | 8 | 28.4 | > 100 | 52.3 | 26.8 | 89 | 65.2 | 99.4 | 
23 | CC1CCC(C(C)C)C(OC(=O)NCn2cc(-c3ccccc3)nn2)C1 (centres undefined) | > 100 |  | > 100 | > 100 | > 100 | > 100 | > 100 | > 100 |  | > 100 | > 100 | > 100 | > 100 | > 100 | > 100 | > 100 | > 100 |  | 86
24 | COc1ccc(P2(=S)OC(C)(C)C(C)(C)O2)cc1 | > 100 |  | > 100 |  | > 100 |  | > 100 | > 100 | > 100 |  | > 100 | > 100 | > 100 | > 100 | > 100 | > 100 | > 100 | > 100 | > 100
25 | CC(C)C(=O)OCC1OC(n2c(Br)nc3c(=O)[nH]c(N)nc32)C(OC(=O)C(C)C)C1OC(=O)C(C)C (centres undefined) | 62.9 |  |  | > 100 | > 100 |  | > 100 | 55.5 | 48.2 | > 100 | > 100 | 40.3 | > 100 |  | > 100 |  | 58 |  | > 100
26 | COC(=O)C1=C(C(=O)NNc2ccccc2)N(c2cccnc2Cl)C(c2ccccc2)=CC1c1ccccc1 (centres undefined) | > 100 | > 100 | > 100 | > 100 | > 100 | > 100 | > 100 | > 100 | 67.2 | > 100 |  | > 100 | > 100 | > 100 | > 100 | > 100 | > 100 | > 100 | > 100
27 | S=C(S)NCNC(=S)S.[Zn+2] | > 100 | > 100 | > 100 | > 100 | > 100 | > 100 |  | > 100 | > 100 |  | > 100 | > 100 | > 100 | > 100 | > 100 | > 100 | > 100 | > 100 | > 100
28 | O=C(Nc1nc(C23CC4CC(CC(C4)C2)C3)cs1)c1cc2ccc(O)cc2oc1=O | 35.4 | 28.6 | 39 | 50.4 | 90.9 | 43.3 | 49 | 22.2 | 38.1 |  | 48.5 | 27.4 | 80.6 | 38.4 | 22 | 33 | 52.7 | 31.8 | 

From PubChem BioAssay (NCI)
